Assay results from patent US20070026505A1, “Amino acid and metabolite biosynthesis” (priority 2005, published 2007).

Tests used:
C. glutamicum MetA = target: T1, C. glutamicum MetA (Corynebacterium glutamicum, UniProt O68640); assay: MetA (in vitro O-acetyltransferase) activity in crude protein extracts, C. glutamicum MetA; format: biochemical
T1 construct: contain both endogenous and episomal C. glutamicum MetA and MetY genes; expressed in transfected cells; host or cells: C. glutamicum MA-442 (plasmid MB-4135, metA-metY) and MA-449 (MB-4138, metY-metA), both MA-428 / ATCC 13032 derivatives; crude protein extract
T1 sequence (O68640 whole entry): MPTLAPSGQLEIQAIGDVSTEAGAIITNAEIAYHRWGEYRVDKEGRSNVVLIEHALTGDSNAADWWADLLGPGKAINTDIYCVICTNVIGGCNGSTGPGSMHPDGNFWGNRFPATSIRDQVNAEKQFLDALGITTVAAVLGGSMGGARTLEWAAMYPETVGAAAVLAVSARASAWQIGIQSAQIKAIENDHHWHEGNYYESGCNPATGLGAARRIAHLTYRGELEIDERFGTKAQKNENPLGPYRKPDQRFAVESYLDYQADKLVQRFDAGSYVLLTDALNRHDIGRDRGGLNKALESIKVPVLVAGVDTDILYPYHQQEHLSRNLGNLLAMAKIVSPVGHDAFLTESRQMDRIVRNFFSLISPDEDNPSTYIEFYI
Description: MetA activity in C. glutamicum expressing endogenous and episomal metA genes was determined. MetA activity was assayed in crude protein extracts using a protocol described by Kredich and Tomkins (J. Biol. Chem.241(21): 4955-4965, 1966). […] Briefly, 1 μg of protein extract was added to a microtiter plate. Reaction mix (250 μl; 100 mM tris-HCl pH 7.5, 2 mM 5,5′-Dithiobis(2-nitrobenzoic acid) (DTN), 2 mM sodium EDTA, 2 mM acetyl CoA, 2 mM homoserine) was added to each well of the microtiter plate. In the course of the reactions, MetA activity liberates CoA from acetyl-CoA. A disulfide interchange occurs between the CoA and DTN to produce thionitrobenzoic acid. The production of thionitrobenzoic acid is followed spectrophotometrically. Absorbance at 412 nm was measured every 5 minutes over a period of 30 minutes. A well without protein extract was included as a control. […] Inhibitors were added directly to the reaction mix before it was added to the protein extract.
Experiments were performed in the presence and absence of IPTG that induces expression of the plasmid borne MetA and MetY genes.

[1] = test system: O-Acetylhomoserine sulfhydrylase (MetY); details: grown in the presence of 0.5 mM methionine; cited from earlier work

With `C[S+](CC[C@H](N)C(=O)[O-])C[C@H]1O[C@@H](n2cnc3c(N)ncnc32)[C@H](O)[C@@H]1O` (stereo partly drawn) [S-AM, S-adenosyl methionine] the “MetA activity of MA-442 extracts in presence of S-AM” value (C. glutamicum MetA; 0.2 mM S-AM) was “reduced”.
For `CSCC[C@H](N)C(=O)O` [methionine], the “MetA activity of MA-442 extracts in presence of methionine” value (C. glutamicum MetA; 5 mM methionine) is listed as “reduced” and the “reduction in MetY enzyme activity” value [1] is listed as 99%.
